Laboratory results as given in ChEMBL document CHEMBL3804793, “Abietane-Type Diterpenoid Amides with Highly Potent and Selective Activity against Leishmania donovani and Trypanosoma cruzi” (J Nat Prod, 2016).

What was measured:
Trypanosoma cruzi [1] = experiment: Antitrypanosomal activity against intracellular form of Trypanosoma cruzi; format: functional, organism-based
Leishmania donovani [2] = experiment: Antileishmanial activity against axenic amastigotes of Leishmania donovani MHOM/SD/1962/1S-Cl2d infected in human THP1 cells assessed as parasite growth inhibition at 50 uM after 24 hrs by AlamarBlue viability assay; format: functional; conditions: read-out: GI
Trypanosoma cruzi [3] = experiment: Antitrypanosomal activity against trypomastigote form of Trypanosoma cruzi Tulahuen C2C4 expressing LacZ gene infected in rat L6 cells after 96 hrs by photometric method; format: functional, organism-based; conditions: Tulahuen C2C4, L6, 96 h
L6 = experiment: Cytotoxicity against rat L6 cells after 72 hrs by AlamarBlue dye based fluorimetric method; format: cell-based; conditions: L6, 72 h
[4] = Selectivity index, ratio of IC50 for rat L6 cells to IC50 for Trypanosoma cruzi Tulahuen C2C4 amastigotes; format: toxicity, cell-based; conditions: read-out: Ratio IC50
Leishmania donovani [5] = experiment: Antileishmanial activity against axenic amastigotes of Leishmania donovani MHOM/SD/1962/1S-Cl2d infected in human THP1 cells assessed as parasite growth inhibition at 15 uM after 24 hrs by AlamarBlue viability assay; format: functional; conditions: read-out: GI
Leishmania donovani [6] = experiment: Antileishmanial activity against axenic amastigotes of Leishmania donovani MHOM/SD/1962/1S-Cl2d infected in human macrophages at 5 uM; format: functional
Leishmania donovani [7] = experiment: Antileishmanial activity against axenic amastigotes of Leishmania donovani MHOM/SD/1962/1S-Cl2d […] assessed as parasite growth inhibition after 24 hrs by AlamarBlue viability assay; format: functional, organism-based
[8] = Cytotoxicity against human THP1 cells after 48 hrs by AlamarBlue viability assay; format: cell-based; conditions: THP-1, 48 h
[9] = Selectivity index, ratio of IC50 for human THP1 cells to IC50 for axenic amastigotes of Leishmania donovani MHOM/SD/1962/1S-Cl2d infected in human THP1 cells; format: toxicity, cell-based, THP-1; conditions: read-out: Ratio IC50
Leishmania donovani [10] = experiment: Selectivity for axenic amastigotes of Leishmania donovani MHOM/SD/1962/1S-Cl2d infected in human macrophages over axenic amastigotes of Leishmania donovani MHOM/SD/1962/1S-Cl2d infected in human THP1 cells; format: functional, THP-1
Trypanosoma cruzi [11] = experiment: Potency index, ratio of IC50 for benznidazole to IC50 for test compound against trypomastigote form of Trypanosoma cruzi Tulahuen C2C4 expressing LacZ gene infected in rat L6 cells; format: functional
Leishmania donovani [12] = experiment: Antileishmanial activity against amastigotes of Leishmania donovani MHOM/SD/1962/1S-Cl2d infected in human THP1 cells assessed as parasite growth inhibition at 1 uM after 24 hrs by AlamarBlue viability assay; conditions: THP-1, 24 h
Trypanosoma cruzi [13] = experiment: Antitrypanosomal activity against metacyclic form of Trypanosoma cruzi SN3 infected in African green monkey Vero cells after 72 hrs by Giemsa staining; format: functional, organism-based
[14] = Selectivity index, ratio of IC50 for African green monkey Vero cells to IC50 for metacyclic form of Trypanosoma cruzi SN3; format: toxicity, cell-based; conditions: read-out: Ratio IC50

SMILES: CC(C)c1cc2c(c(O)c1O)[C@@]1(C)CCCC(C)(C)C1=C(O)C2=O [14-DEOXYCOLEON U]
- IC50 (Trypanosoma cruzi [1]): 25.7 µM

SMILES: CC(C)c1ccc2c(c1)CC[C@H]1[C@](C)(CN)CCC[C@]21C
- inhibition of growth at 50 µM (Leishmania donovani [2]): 68.7%
- IC50 (Trypanosoma cruzi [3]): 7.4 µM
- IC50 (L6): 6.5 µM
- selectivity ratio [4]: 1

SMILES: CC(C)c1ccc2c(c1)CC[C@H]1[C@](C)(CNC(=O)c3ccccc3)CCC[C@]21C
- inhibition of growth at 50 µM (Leishmania donovani [2]): 95.7%
- inhibition of growth at 15 µM (Leishmania donovani [5]): 56.3%

SMILES: C=CC(=O)NC[C@]1(C)CCC[C@]2(C)c3ccc(C(C)C)cc3CC[C@@H]12
- inhibition of growth at 50 µM (Leishmania donovani [2]): 99.8%
- inhibition at 5 µM (Leishmania donovani [6]): 94.7%
- inhibition of growth at 15 µM (Leishmania donovani [5]): 99.6%
- IC50 (Leishmania donovani [7]): 0.37 µM
- IC50 [8]: 23.2 µM
- selectivity ratio [9]: 63
- selectivity ratio (Leishmania donovani [10]): 6
- IC50 (Trypanosoma cruzi [3]): 0.6 µM
- IC50 (L6): 36.7 µM
- selectivity ratio [4]: 58
- Ratio IC50 (Trypanosoma cruzi [11]): 3.5

SMILES: CC(C)c1ccc2c(c1)CC[C@H]1[C@](C)(CNC(=O)/C=C/c3ccc([N+](=O)[O-])cc3)CCC[C@]21C
- inhibition of growth at 50 µM (Leishmania donovani [2]): 42.7%

SMILES: CC(C)c1ccc2c(c1)CC[C@H]1[C@](C)(CNC(=O)c3ccc[nH]3)CCC[C@]21C
- inhibition of growth at 50 µM (Leishmania donovani [2]): 99.1%
- inhibition of growth at 15 µM (Leishmania donovani [5]): 90.6%
- IC50 (Leishmania donovani [7]): 3.2 µM
- IC50 [8]: 33.3 µM
- selectivity ratio [9]: 10

SMILES: C#CC(=O)NC[C@]1(C)CCC[C@]2(C)c3ccc(C(C)C)cc3CC[C@@H]12
- inhibition of growth at 50 µM (Leishmania donovani [2]): 99.8%
- inhibition of growth at 15 µM (Leishmania donovani [5]): 98.1%
- IC50 (Leishmania donovani [7]): 4.1 µM
- IC50 [8]: < 3 µM
- selectivity ratio [9]: < 1

SMILES: CCCC(=O)NC[C@]1(C)CCC[C@]2(C)c3ccc(C(C)C)cc3CC[C@@H]12
- inhibition of growth at 50 µM (Leishmania donovani [2]): 96.6%
- inhibition of growth at 15 µM (Leishmania donovani [5]): 73.2%
- IC50 (Leishmania donovani [7]): 5.1 µM
- IC50 [8]: 56.3 µM
- selectivity ratio [9]: 11

SMILES: CC(C)c1ccc2c(c1)CC[C@H]1[C@](C)(CNC(=O)CCC(=O)O)CCC[C@]21C
- inhibition of growth at 50 µM (Leishmania donovani [2]): 98.1%
- inhibition of growth at 15 µM (Leishmania donovani [5]): 55%

SMILES: CC(C)c1ccc2c(c1)CC[C@H]1[C@](C)(CNC(=O)c3ccccc3C(=O)O)CCC[C@]21C
- inhibition of growth at 50 µM (Leishmania donovani [2]): 98.5%
- inhibition of growth at 15 µM (Leishmania donovani [5]): 34.9%

SMILES: CC(C)c1ccc2c(c1)CC[C@H]1[C@](C)(CNC(=O)c3nccnc3C(=O)O)CCC[C@]21C
- inhibition of growth at 50 µM (Leishmania donovani [2]): 9.4%

SMILES: CC(C)c1ccc2c(c1)CC[C@H]1[C@](C)(CNC(=O)/C=C/c3ccccc3)CCC[C@]21C
- inhibition of growth at 50 µM (Leishmania donovani [2]): 42.4%

SMILES: C[C@@H]1[C@H](O)[C@@H](C)/C=C/C=C/C=C/C=C/C=C/C=C/C=C/[C@H](O[C@@H]2O[C@H](C)[C@@H](O)[C@H](N)[C@@H]2O)C[C@@H]2O[C@](O)(C[C@@H](O)C[C@@H](O)[C@H](O)CC[C@@H](O)C[C@@H](O)CC(=O)O[C@H]1C)C[C@H](O)[C@H]2C(=O)O [AMPHOTERICIN B]
- inhibition at 1 µM (Leishmania donovani [12]): > 90%

SMILES: CC(=O)NC[C@]1(C)CCC[C@]2(C)c3ccc(C(C)C)cc3CC[C@@H]12
- inhibition of growth at 50 µM (Leishmania donovani [2]): 98.5%
- inhibition of growth at 15 µM (Leishmania donovani [5]): 96%
- IC50 (Leishmania donovani [7]): 2.4 µM
- IC50 [8]: 33.3 µM
- selectivity ratio [9]: 14
- IC50 (Trypanosoma cruzi [3]): 3.7 µM
- IC50 (L6): 24.3 µM
- selectivity ratio [4]: 6

SMILES: COC(=O)[C@]1(C)CCC[C@]2(C)C3=C(CC[C@@H]12)C(=O)C(C(C)C)=CC3=O
- IC50 (Trypanosoma cruzi [13]): 17.3 µM
- selectivity ratio [14]: 45

SMILES: CC(C)c1ccc2c(c1)CC[C@H]1[C@](C)(CNC(=O)/C=C\C(=O)O)CCC[C@]21C
- inhibition of growth at 50 µM (Leishmania donovani [2]): 98.8%
- inhibition at 5 µM (Leishmania donovani [6]): 34.7%
- inhibition of growth at 15 µM (Leishmania donovani [5]): 90.7%
- IC50 (Leishmania donovani [7]): 1.9 µM
- IC50 [8]: 145 µM
- selectivity ratio [9]: 76
- IC50 (Trypanosoma cruzi [3]): 9.5 µM
- IC50 (L6): 33.5 µM
- selectivity ratio [4]: 4
